# In ChEMBL document CHEMBL1138371, “Discovery of low nanomolar non-hydroxamate inhibitors of tumor necrosis factor-alpha converting enzyme (TACE)” (Bioorg Med Chem Lett, 2007):
# How the values were obtained:
# [1] = biological target: Macrophage metalloelastase (Homo sapiens, UniProt P39900); experiment: Inhibition of MMP12
# Homo sapiens = organism: Homo sapiens; experiment: Inhibition of aggrecanase at 1 uM
# [2] = biological target: Disintegrin and metalloproteinase domain-containing protein 17 (Sus scrofa, UniProt O77636); experiment: Inhibition of porcine TACE
# Chain of Disintegrin and metalloproteinase domain-containing protein 17 (O77636 whole entry, the tested form may be a part): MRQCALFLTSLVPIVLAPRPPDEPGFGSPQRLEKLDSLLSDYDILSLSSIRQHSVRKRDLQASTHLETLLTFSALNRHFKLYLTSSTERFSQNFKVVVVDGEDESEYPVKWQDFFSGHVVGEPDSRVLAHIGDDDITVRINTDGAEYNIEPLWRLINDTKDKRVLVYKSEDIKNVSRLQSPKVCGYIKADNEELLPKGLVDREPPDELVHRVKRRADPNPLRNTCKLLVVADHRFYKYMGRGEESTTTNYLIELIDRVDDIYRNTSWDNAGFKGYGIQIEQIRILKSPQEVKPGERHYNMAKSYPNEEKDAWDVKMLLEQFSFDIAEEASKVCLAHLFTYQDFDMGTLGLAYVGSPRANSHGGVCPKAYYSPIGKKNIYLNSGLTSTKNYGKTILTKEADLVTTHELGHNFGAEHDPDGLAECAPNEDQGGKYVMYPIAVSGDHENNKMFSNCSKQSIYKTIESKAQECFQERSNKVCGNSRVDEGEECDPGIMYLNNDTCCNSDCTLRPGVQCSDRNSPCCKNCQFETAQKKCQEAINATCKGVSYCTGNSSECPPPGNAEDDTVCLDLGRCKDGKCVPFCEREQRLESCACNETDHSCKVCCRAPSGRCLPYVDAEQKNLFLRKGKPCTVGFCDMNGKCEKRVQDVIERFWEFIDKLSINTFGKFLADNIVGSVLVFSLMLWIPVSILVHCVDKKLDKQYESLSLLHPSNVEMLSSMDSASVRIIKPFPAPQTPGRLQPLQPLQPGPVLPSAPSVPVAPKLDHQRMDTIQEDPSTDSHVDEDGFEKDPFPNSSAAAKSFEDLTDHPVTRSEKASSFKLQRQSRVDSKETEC
# Stromelysin-1 = Stromelysin-1 (Homo sapiens, UniProt P08254); experiment: Inhibition of MMP3
# Chain of Stromelysin-1 (P08254 whole entry): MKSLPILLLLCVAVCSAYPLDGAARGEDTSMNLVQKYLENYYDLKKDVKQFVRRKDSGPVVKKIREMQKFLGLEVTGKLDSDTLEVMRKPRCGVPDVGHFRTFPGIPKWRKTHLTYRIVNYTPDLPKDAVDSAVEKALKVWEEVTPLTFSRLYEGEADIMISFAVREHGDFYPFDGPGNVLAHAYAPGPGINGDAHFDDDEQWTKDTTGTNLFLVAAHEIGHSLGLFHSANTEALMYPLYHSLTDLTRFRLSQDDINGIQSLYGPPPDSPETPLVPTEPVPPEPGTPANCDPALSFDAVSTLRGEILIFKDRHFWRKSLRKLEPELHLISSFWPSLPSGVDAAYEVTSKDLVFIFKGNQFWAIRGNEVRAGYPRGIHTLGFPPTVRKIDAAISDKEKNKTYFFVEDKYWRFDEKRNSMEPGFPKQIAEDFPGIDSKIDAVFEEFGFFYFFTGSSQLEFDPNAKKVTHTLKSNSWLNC
# [3] = biological target: Matrix metalloproteinase-9 (Homo sapiens, UniProt P14780); experiment: Inhibition of MMP9
# Chain of Matrix metalloproteinase-9 (P14780 whole entry): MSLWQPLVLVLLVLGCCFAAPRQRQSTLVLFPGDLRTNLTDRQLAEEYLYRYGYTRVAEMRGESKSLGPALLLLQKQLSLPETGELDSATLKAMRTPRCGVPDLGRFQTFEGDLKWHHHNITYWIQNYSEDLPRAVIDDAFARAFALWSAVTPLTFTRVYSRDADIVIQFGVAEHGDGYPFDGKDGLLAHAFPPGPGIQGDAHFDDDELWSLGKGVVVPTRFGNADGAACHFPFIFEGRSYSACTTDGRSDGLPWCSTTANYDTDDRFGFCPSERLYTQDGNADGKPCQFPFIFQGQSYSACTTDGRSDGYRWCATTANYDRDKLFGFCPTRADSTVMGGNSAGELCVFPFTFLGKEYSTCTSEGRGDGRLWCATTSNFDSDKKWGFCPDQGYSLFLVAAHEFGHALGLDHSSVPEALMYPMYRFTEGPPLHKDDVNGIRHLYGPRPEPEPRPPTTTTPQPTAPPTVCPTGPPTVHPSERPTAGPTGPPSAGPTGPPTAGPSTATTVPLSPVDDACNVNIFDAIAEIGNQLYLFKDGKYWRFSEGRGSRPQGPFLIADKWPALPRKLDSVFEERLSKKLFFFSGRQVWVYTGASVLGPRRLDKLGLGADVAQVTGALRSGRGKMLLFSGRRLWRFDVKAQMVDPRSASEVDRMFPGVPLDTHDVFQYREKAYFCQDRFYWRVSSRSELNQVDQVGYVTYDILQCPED
# [4] = biological target: 72 kDa type IV collagenase (Homo sapiens, UniProt P08253); experiment: Inhibition of MMP2
# Chain of 72 kDa type IV collagenase (P08253 whole entry): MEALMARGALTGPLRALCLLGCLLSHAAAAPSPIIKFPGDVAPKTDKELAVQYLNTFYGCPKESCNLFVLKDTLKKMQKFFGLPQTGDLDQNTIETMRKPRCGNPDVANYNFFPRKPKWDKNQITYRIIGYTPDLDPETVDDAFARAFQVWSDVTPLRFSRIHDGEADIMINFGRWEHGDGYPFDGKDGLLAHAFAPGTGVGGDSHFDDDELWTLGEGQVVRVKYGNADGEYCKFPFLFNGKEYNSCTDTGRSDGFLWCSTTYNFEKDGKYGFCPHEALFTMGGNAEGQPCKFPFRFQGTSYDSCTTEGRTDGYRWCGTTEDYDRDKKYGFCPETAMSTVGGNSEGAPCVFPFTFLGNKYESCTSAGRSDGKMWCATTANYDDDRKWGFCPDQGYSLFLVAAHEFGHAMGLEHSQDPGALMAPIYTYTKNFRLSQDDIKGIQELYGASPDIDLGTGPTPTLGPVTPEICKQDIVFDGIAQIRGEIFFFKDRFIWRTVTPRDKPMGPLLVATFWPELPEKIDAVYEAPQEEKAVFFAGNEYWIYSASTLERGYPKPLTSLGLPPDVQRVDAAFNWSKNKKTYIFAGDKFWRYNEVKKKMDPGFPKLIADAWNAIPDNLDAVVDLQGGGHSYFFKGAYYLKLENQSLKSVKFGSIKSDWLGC
# Collagenase 3 = Collagenase 3 (Homo sapiens, UniProt P45452); experiment: Inhibition of MMP13
# Matrilysin = biological target: T1, Matrilysin (Homo sapiens, UniProt P09237); experiment: Inhibition of MMP7
# T1 sequence (P09237 whole entry): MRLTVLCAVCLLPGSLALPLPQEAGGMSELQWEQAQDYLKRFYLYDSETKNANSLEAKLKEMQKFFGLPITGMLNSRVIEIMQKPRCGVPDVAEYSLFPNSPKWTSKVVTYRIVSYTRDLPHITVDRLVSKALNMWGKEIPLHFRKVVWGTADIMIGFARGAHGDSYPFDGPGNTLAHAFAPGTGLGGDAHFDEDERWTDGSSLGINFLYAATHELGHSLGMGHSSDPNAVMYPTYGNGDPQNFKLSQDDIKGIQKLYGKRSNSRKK
# Interstitial collagenase = biological target: T2, Interstitial collagenase (Homo sapiens, UniProt P03956); experiment: Inhibition of MMP1
# T2 sequence (P03956 whole entry): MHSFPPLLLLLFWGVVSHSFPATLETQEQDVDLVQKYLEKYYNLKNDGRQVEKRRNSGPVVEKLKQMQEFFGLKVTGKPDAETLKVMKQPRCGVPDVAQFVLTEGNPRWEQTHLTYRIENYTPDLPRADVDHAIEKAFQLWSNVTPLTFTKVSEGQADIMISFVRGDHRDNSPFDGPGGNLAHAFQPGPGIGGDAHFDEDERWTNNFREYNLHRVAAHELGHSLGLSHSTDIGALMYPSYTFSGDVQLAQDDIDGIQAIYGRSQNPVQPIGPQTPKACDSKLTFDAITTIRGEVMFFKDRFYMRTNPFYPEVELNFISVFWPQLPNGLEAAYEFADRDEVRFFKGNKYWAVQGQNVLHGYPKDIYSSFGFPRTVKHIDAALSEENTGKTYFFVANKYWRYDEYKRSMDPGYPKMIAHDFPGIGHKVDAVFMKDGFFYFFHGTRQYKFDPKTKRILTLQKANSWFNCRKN
# Chain of Macrophage metalloelastase (P39900 whole entry): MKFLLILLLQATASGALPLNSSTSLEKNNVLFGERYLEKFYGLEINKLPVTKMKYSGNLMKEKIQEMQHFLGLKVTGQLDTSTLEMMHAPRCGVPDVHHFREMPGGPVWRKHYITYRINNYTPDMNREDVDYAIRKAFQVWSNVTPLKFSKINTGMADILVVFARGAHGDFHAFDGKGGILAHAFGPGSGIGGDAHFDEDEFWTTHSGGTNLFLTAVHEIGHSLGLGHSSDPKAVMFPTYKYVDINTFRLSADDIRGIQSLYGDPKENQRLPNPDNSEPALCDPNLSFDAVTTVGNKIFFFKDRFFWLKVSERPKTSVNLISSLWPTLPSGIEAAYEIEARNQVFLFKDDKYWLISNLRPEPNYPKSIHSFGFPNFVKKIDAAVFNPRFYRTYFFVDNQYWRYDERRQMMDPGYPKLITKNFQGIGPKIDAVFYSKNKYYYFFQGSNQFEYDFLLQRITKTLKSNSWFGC
structure (smiles),measurement,setting,value
Cc1cc(COc2ccc(C(=O)NCC3(C)C(=O)NC(=O)NC3=O)cc2)c2ccccc2n1,Ki,[1],> 6.02 µM
same,inhibition,Homo sapiens,0%
same,IC50,[2],0.026 µM
same,Ki,Stromelysin-1,> 4.5 µM
same,Ki,[3],> 2.13 µM
same,Ki,[4],> 3.33 µM
same,Ki,Collagenase 3,> 5.02 µM
same,Ki,Matrilysin,> 6.37 µM
same,Ki,Interstitial collagenase,> 4.95 µM
